As a reminder, the IC50 is the midpoint of a concentration-inhibition curve.

The values below come from patent US20260191968A1, “PROTAC DEGRADERS OF MLLT1 AND/OR MLLT3” (DARK BLUE THERAPEUTICS LTD, priority 2024, published 2026).

Assay [1] relates to MV4-11 cells. Description: MV4-11 cellular proliferative assay, Assay Format B (CTG 2.0, 168 h). Type of assay: cell-based. The conditions noted are these: Homo sapiens, 168 h (7 days), CTG 2.0, read-out: IC50 (MV4-11 cellular proliferative assay, Assay format B). The method, boiled down:
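MV4-11 cells seeded overnight in IMDM + 10% FBS, then exposed to 10-point, 3-fold dilutions from 1 uM or 100 nM top concentration (0.3% DMSO final) for 168 h at 37 °C. CTG 2.0 luminescence read; % viability vs DMSO control fitted by four-parameter logistic regression.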

In assay [2] the target is T1, MLLT1 (Homo sapiens, UniProt Q03111).
T1 construct: host or cells: MV4-11
T1 sequence (Q03111 1-559): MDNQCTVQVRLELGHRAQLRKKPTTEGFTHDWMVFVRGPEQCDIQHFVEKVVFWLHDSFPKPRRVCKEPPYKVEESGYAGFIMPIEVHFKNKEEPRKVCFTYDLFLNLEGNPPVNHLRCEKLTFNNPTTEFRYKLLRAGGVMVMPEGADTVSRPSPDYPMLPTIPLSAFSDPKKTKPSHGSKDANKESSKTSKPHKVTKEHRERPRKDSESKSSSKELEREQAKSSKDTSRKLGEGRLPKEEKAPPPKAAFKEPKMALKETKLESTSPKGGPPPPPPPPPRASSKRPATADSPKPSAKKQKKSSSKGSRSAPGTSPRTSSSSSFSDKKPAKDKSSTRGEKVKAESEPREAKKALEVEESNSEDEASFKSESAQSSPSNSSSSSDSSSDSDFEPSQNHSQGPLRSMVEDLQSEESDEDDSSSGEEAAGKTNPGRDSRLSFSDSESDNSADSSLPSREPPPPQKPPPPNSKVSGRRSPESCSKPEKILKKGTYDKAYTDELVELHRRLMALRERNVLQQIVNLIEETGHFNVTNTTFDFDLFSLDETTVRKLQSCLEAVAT
Description: MLLT1 degradation assay in MV4-11 cells (JESS chemiluminescent detection), three concentrations, 24 h. It counts as cell-based. The settings on record: with respect to DMSO control. The procedure, abridged: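 MV4-11 cells treated 24 h at 37° C, 5% CO2 with 1000, 100 and 10 nM compound (0.1% DMSO final). MLLT1 quantified by automated capillary chemiluminescent immunodetection; band peak area expressed as % degradation relative to DMSO control.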

As for `CN1CCC[C@@H]1c1cc2cnc(NC(=O)c3ccc(CCCC#Cc4cccc5c4CN(C4CCC(=O)NC4=O)C5=O)cc3F)cc2[nH]1` (stereo partly drawn) [Example 94, 4-(5-(2-(2,6-dioxopiperidin-3-yl)-1-oxoisoindolin-4-yl)pent-4-yn-1-yl)-2-fluoro-N-(2-((R)-1-methylpyrrolidin-2-yl)-1H-pyrrolo[3,2-c]pyridin-6-yl)benzamide], in assay [1], the IC50 is not above 0.1 µM. In assay [2], the “MLLT1% Degradation @ 0.01 μM” value is given as “A (Category A: A ≥ 75% degradation)”, the “MLLT1% Degradation @ 0.1 μM” value was “A (Category A: A ≥ 75% degradation)” and the “MLLT1% Degradation @ 1 μM” value is given as “A (Category A: A ≥ 75% degradation)”.
On to `CN1CCC[C@@H]1c1cc2cnc(NC(=O)c3ccc(CCCC#Cc4cc(F)cc5c4CN(C4CCC(=O)NC4=O)C5=O)cc3)cc2[nH]1` (stereo partly drawn) [Example 101, 4-(5-(2-(2,6-dioxopiperidin-3-yl)-6-fluoro-1-oxoisoindolin-4-yl)pent-4-yn-1-yl)-N-(2-((R)-1-methylpyrrolidin-2-yl)-1H-pyrrolo[3,2-c]pyridin-6-yl)benzamide], for which the IC50 in assay [1] is not above 0.1 µM. Besides, in assay [2], the “MLLT1% Degradation @ 0.01 μM” value is recorded as “A (Category A: A ≥ 75% degradation)”, the “MLLT1% Degradation @ 0.1 μM” value is “A (Category A: A ≥ 75% degradation)” and the “MLLT1% Degradation @ 1 μM” value is on record as “A (Category A: A ≥ 75% degradation)”.
Consider `CN1CCC[C@@H]1c1cc2cnc(NC(=O)c3ccc(N4CCN(Cc5ccc(-c6cccc7c6CN(C6CCC(=O)NC6=O)C7=O)cc5)CC4)cc3)cc2[nH]1` (stereo partly drawn) [Example 98, 4-(4-(4-(2-(2,6-dioxopiperidin-3-yl)-1-oxoisoindolin-4-yl)benzyl)piperazin-1-yl)-N-(2-((R)-1-methylpyrrolidin-2-yl)-1H-pyrrolo[3,2-c]pyridin-6-yl)benzamide], for which the IC50 in assay [1] is not above 0.1 µM. For the same compound, in assay [2], the “MLLT1% Degradation @ 0.01 μM” value was “A (Category A: A ≥ 75% degradation)”, the “MLLT1% Degradation @ 0.1 μM” value is listed as “A (Category A: A ≥ 75% degradation)” and the “MLLT1% Degradation @ 1 μM” value is listed as “A (Category A: A ≥ 75% degradation)”.
For `CN1CCC[C@@H]1c1cc2cnc(NC(=O)c3ccc(CCCCC#Cc4cccc(N5CCC(=O)NC5=O)n4)cc3)cc2[nH]1` [Example 9, (R)-4-(6-(6-(2,4-dioxotetrahydropyrimidin-1(2H)-yl)pyridin-2-yl)hex-5-yn-1-yl)-N-(2-(1-methylpyrrolidin-2-yl)-1H-pyrrolo[3,2-c]pyridin-6-yl)benzamide], in assay [1], the IC50 is not above 0.1 µM. Further, in assay [2], the “MLLT1% Degradation @ 0.01 μM” value was “A (Category A: A ≥ 75% degradation)”, the “MLLT1% Degradation @ 0.1 μM” value is reported as “A (Category A: A ≥ 75% degradation)” and the “MLLT1% Degradation @ 1 μM” value was “A (Category A: A ≥ 75% degradation)”.
For the compound `CN1CCC[C@@H]1c1cc2cnc(NC(=O)c3ccc(OCCC4CCN(c5cccc6c5CN(C5CCC(=O)NC5=O)C6=O)CC4)cc3)cc2[nH]1` (mixture of isomers) [Example 79, 4-(2-(1-(2-(2,6-dioxopiperidin-3-yl)-1-oxoisoindolin-4-yl)piperidin-4-yl)ethoxy)-N-(2-((R)-1-methylpyrrolidin-2-yl)-1H-pyrrolo[3,2-c]pyridin-6-yl)benzamide], the IC50 in assay [1] was not above 0.1 µM. Further, in assay [2], the “MLLT1% Degradation @ 0.01 μM” value was “A (Category A: A ≥ 75% degradation)”, the “MLLT1% Degradation @ 0.1 μM” value is on record as “A (Category A: A ≥ 75% degradation)” and the “MLLT1% Degradation @ 1 μM” value is on record as “A (Category A: A ≥ 75% degradation)”.
For the compound `CN1CCC[C@@H]1c1[nH]c2cc(NC(=O)CCCCCCC#Cc3cccc4c3CN(C3CCC(=O)NC3=O)C4=O)ncc2c1Cl` (stereo partly drawn) [Example 13, N-(3-chloro-2-((R)-1-methylpyrrolidin-2-yl)-1H-pyrrolo[3,2-c]pyridin-6-yl)-9-(2-(2,6-dioxopiperidin-3-yl)-1-oxoisoindolin-4-yl) non-8-ynamide], the IC50 in assay [1] was not above 0.1 µM. Besides, in assay [2], the “MLLT1% Degradation @ 0.01 μM” value is “A (Category A: A ≥ 75% degradation)”, the “MLLT1% Degradation @ 0.1 μM” value is “A (Category A: A ≥ 75% degradation)” and the “MLLT1% Degradation @ 1 μM” value was “A (Category A: A ≥ 75% degradation)”.
For `CN1CCC[C@@H]1c1cc2cnc(NC(=O)c3ccc(N4CCC(OCC5CCN(c6cccc7c6CN(C6CCC(=O)NC6=O)C7=O)CC5)CC4)nc3)cc2[nH]1` (stereo partly drawn) [Example 147, 6-(4-((1-(2-(2,6-dioxopiperidin-3-yl)-1-oxoisoindolin-4-yl)piperidin-4-yl)methoxy)piperidin-1-yl)-N-(2-((R)-1-methylpyrrolidin-2-yl)-1H-pyrrolo[3,2-c]pyridin-6-yl)nicotinamide], in assay [1], the IC50 is not above 0.1 µM. For the same compound, in assay [2], the “MLLT1% Degradation @ 0.01 μM” value is listed as “A (Category A: A ≥ 75% degradation)”, the “MLLT1% Degradation @ 0.1 μM” value is listed as “A (Category A: A ≥ 75% degradation)” and the “MLLT1% Degradation @ 1 μM” value is recorded as “A (Category A: A ≥ 75% degradation)”.
For `CN1CCC[C@@H]1c1cc2cnc(NC(=O)c3ccc(OC4CCN(CC5CCN(c6ccc7c(c6)C(=O)N(C6CCC(=O)NC6=O)C7=O)CC5)CC4)cc3)cc2[nH]1` (stereo partly drawn) [Example 124, 4-((1-((1-(2-(2,6-dioxopiperidin-3-yl)-1,3-dioxoisoindolin-5-yl)piperidin-4-yl)methyl)piperidin-4-yl)oxy)-N-(2-((R)-1-methylpyrrolidin-2-yl)-1H-pyrrolo[3,2-c]pyridin-6-yl)benzamide], in assay [1], the half-inhibitory concentration (IC50) is not above 0.1 µM. Further, in assay [2], the “MLLT1% Degradation @ 0.01 μM” value is recorded as “B (Category B: 50% ≤ B < 75% degradation)”, the “MLLT1% Degradation @ 0.1 μM” value was “A (Category A: A ≥ 75% degradation)” and the “MLLT1% Degradation @ 1 μM” value is on record as “A (Category A: A ≥ 75% degradation)”.
Consider `CN1CCC[C@@H]1c1cc2cnc(NC(=O)c3ccc(N4CCC(CCN5CCN(c6cccc7c6CN(C6CCC(=O)NC6=O)C7=O)CC5)CC4)nc3)cc2[nH]1` (stereo partly drawn) [Example 138, 6-(4-(2-(4-(2-(2,6-dioxopiperidin-3-yl)-1-oxoisoindolin-4-yl)piperazin-1-yl)ethyl)piperidin-1-yl)-N-(2-((R)-1-methylpyrrolidin-2-yl)-1H-pyrrolo[3,2-c]pyridin-6-yl)nicotinamide], for which, in assay [1], the IC50 is not above 0.1 µM. In assay [2], the “MLLT1% Degradation @ 0.01 μM” value was “A (Category A: A ≥ 75% degradation)”, the “MLLT1% Degradation @ 0.1 μM” value is given as “A (Category A: A ≥ 75% degradation)” and the “MLLT1% Degradation @ 1 μM” value was “A (Category A: A ≥ 75% degradation)”.
Regarding `CN1CCC[C@@H]1c1cc2cnc(NC(=O)c3ccc(OCCCC4CCN(c5cccc6c5CN(C5CCC(=O)NC5=O)C6=O)CC4)cc3F)cc2[nH]1` (stereo partly drawn) [Example 209, 4-(3-(1-(2-(2,6-dioxopiperidin-3-yl)-1-oxoisoindolin-4-yl)piperidin-4-yl)propoxy)-2-fluoro-N-(2-((R)-1-methylpyrrolidin-2-yl)-1H-pyrrolo[3,2-c]pyridin-6-yl)benzamide], the concentration for half-maximal inhibition (IC50) in assay [1] was not above 0.1 µM. In assay [2], the “MLLT1% Degradation @ 0.01 μM” value is “A (Category A: A ≥ 75% degradation)”, the “MLLT1% Degradation @ 0.1 μM” value is listed as “A (Category A: A ≥ 75% degradation)” and the “MLLT1% Degradation @ 1 μM” value is recorded as “A (Category A: A ≥ 75% degradation)”.
On to `CN1CCC[C@@H]1c1cc2cnc(NC(=O)c3cnc(N4CCC(CC#Cc5cccc6c5CN(C5CCC(=O)NC5=O)C6=O)CC4)cn3)cc2[nH]1` (stereo partly drawn) [Example 154, 5-(4-(3-(2-(2,6-dioxopiperidin-3-yl)-1-oxoisoindolin-4-yl)prop-2-yn-1-yl)piperidin-1-yl)-N-(2-((R)-1-methylpyrrolidin-2-yl)-1H-pyrrolo[3,2-c]pyridin-6-yl)pyrazine-2-carboxamide], for which the IC50 in assay [1] is not above 0.1 µM. Moreover, in assay [2], the “MLLT1% Degradation @ 0.01 μM” value is on record as “A (Category A: A ≥ 75% degradation)”, the “MLLT1% Degradation @ 0.1 μM” value is listed as “A (Category A: A ≥ 75% degradation)” and the “MLLT1% Degradation @ 1 μM” value is recorded as “A (Category A: A ≥ 75% degradation)”.
Take `CN1CCC[C@@H]1c1cc2cnc(NC(=O)c3ccc(OCCC4CCN(c5cccc6c5C(=O)N(C5CCC(=O)NC5=O)C6=O)CC4)cc3)cc2[nH]1` (stereo partly drawn) [Example 82, 4-(2-(1-(2-(2,6-dioxopiperidin-3-yl)-1,3-dioxoisoindolin-4-yl)piperidin-4-yl)ethoxy)-N-(2-((R)-1-methylpyrrolidin-2-yl)-1H-pyrrolo[3,2-c]pyridin-6-yl)benzamide]: in assay [1], the IC50 is not above 0.1 µM. In assay [2], the “MLLT1% Degradation @ 0.01 μM” value is on record as “B (Category B: 50% ≤ B < 75% degradation)”, the “MLLT1% Degradation @ 0.1 μM” value is “A (Category A: A ≥ 75% degradation)” and the “MLLT1% Degradation @ 1 μM” value was “A (Category A: A ≥ 75% degradation)”.
`CN1CCC[C@@H]1c1cc2cnc(NC(=O)c3ccc(N4CCN(CC5CCN(c6cccc7c6CN(C6CCC(=O)NC6=O)C7=O)CC5)CC4)nc3)cc2[nH]1` (stereo partly drawn) [Example 169, 6-(4-((1-(2-(2,6-dioxopiperidin-3-yl)-1-oxoisoindolin-4-yl)piperidin-4-yl)methyl)piperazin-1-yl)-N-(2-((R)-1-methylpyrrolidin-2-yl)-1H-pyrrolo[3,2-c]pyridin-6-yl)nicotinamide]: the IC50 in assay [1] is not above 0.1 µM. In assay [2], the “MLLT1% Degradation @ 0.01 μM” value is recorded as “B (Category B: 50% ≤ B < 75% degradation)”, the “MLLT1% Degradation @ 0.1 μM” value is given as “A (Category A: A ≥ 75% degradation)” and the “MLLT1% Degradation @ 1 μM” value is listed as “A (Category A: A ≥ 75% degradation)”.
